Measurements reported in patent publication US5589474A, “Dibenzothiazepinthione as antiviral agents” (Glaxo Wellcome Inc., priority 1991, dated 1996).

The molecules below were run on HIV (assay: HeLa-CD4 plaque reduction assay (HIV in vitro)). Conditions: Human immunodeficiency virus 1.
Type: cell-based

| SMILES | IC50 |
| --- | --- |
| S=C1Nc2ccccc2Sc2ccccc21 [Example 3, 10,11-Dihydrodibenzo[b,f][1,4]thiazepin-11-thione] | 5 µM |
| Fc1cccc2c1Sc1ccccc1NC2=S [8(iv), 4-Fluoro-10,11-dihydrobenzo[b,f][1,4]thiazepin-11-thione] | 15.4 µM |
| O=[N+]([O-])c1ccc2c(c1)C(=S)Nc1ccccc1S2 [Example 6, 2-Nitro-10,11-dihydrodibenzo[b,f][1,4]thiazepin-11-thione] | 14.4 µM |

Each molecule was assayed on HIV (assay: HIV (in vitro) MT4 assay). Conditions: Human immunodeficiency virus 1.
Type: cell-based

| SMILES | IC50 |
| --- | --- |
| S=C1Nc2ccccc2Sc2ccccc21 [Example 3, 10,11-Dihydrodibenzo[b,f][1,4]thiazepin-11-thione] | 9 µM |
| Fc1cccc2c1Sc1ccccc1NC2=S [8(iv), 4-Fluoro-10,11-dihydrobenzo[b,f][1,4]thiazepin-11-thione] | 3.3 µM |
| O=[N+]([O-])c1ccc2c(c1)C(=S)Nc1ccccc1S2 [Example 6, 2-Nitro-10,11-dihydrodibenzo[b,f][1,4]thiazepin-11-thione] | 44.4 µM |
